# In ChEMBL document CHEMBL5046231, “Modulation of Naturally Occurring Linear Dipeptide Chirality to Reduce the Affinity for Oligopeptide Transporter 1 and Increase Intestinal Stability for an Enhanced Colon-Targeting Effect in the Treatment of Inflammatory Bowel Disease: An Application of trans-4-l-Hydroxyprolyl-l-serine” (J Med Chem, 2022):
# The source made the active and inactive calls. The calls are words filed in the database; no cut-off is given here.
# Tests used:
# [1] = Metabolic stability in DSS-induced C57BL/6 mouse colon assessed as half life measured up to 12 hrs by HPLC analysis; assay type: ADME, tissue-based
# [2] = target: T1, Solute carrier family 15 member 1 (Homo sapiens, UniProt P46059); experiment: Substrate activity at PEPT1 in human Caco-2 cells assessed as inhibition of Gly-Sar substrate uptake by UPLC-MS/MS analysis; assay type: cell-based; settings: human, caco-2
# T1 sequence (P46059 whole entry): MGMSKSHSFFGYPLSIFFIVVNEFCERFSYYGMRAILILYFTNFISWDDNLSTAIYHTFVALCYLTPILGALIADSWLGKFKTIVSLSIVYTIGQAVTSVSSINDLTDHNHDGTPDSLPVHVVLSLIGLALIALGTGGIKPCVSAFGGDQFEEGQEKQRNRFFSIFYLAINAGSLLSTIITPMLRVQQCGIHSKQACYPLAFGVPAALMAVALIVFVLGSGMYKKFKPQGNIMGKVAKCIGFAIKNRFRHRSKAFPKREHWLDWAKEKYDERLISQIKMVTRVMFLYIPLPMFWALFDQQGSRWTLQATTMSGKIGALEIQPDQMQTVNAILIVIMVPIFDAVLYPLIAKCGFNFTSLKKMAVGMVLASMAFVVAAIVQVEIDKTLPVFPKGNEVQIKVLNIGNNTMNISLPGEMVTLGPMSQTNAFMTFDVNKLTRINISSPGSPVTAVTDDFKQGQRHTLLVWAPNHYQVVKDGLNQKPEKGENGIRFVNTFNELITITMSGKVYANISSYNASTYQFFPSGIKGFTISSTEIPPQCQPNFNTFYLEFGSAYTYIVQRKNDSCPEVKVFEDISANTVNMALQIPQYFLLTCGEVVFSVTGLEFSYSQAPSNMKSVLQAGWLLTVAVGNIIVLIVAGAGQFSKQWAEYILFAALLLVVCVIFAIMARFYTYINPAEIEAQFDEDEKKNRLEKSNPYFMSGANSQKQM
# [3] = Chemical stability in phosphate buffer at pH 7.2 assessed as half life measured up to 12 hrs by HPLC analysis; assay type: physicochemical
# [4] = Stability in simulated intestinal fluid at pH 6.8 assessed as half life measured up to 12 hrs by HPLC analysis; assay type: ADME
# Mus musculus [5] = experiment: Anti-colitis activity against DSS-induced C57BL/6 mouse model of colitis assessed as fold change in colon length at 25 to 100 mg/kg, po administered via gavage twice a day for 10 days relative to SASP; assay type: functional; settings: dose 25-100 mg/kg; time 10 day
# [6] = Toxicity in healthy C57BL/6 mouse assessed as histological changes in lung at 100 mg/kg, po administered for 10 days by H and E staining based assay; assay type: organism-based; settings: in vivo, 240 h, time 10 day
# Mus musculus [7] = experiment: Anti-colitis activity against DSS-induced colitis in C57BL/6 mouse model assessed as increase in colon length at 25 mg/kg, po administered via gavage twice daily for 10 days; assay type: functional, organism-based; settings: time 10.0 day
# [8] = Stability in simulated gastric fluid at pH 1.2 assessed as half life measured up to 12 hrs by HPLC analysis; assay type: ADME
# [9] = Metabolic stability in DSS-induced C57BL/6 inflammatory mouse model colonic flora homogenate assessed as half life measured up to 12 hrs by HPLC analysis; assay type: ADME; settings: C57BL/6, mouse
# [10] = Cmax in DSS-induced colitis C57BL/6 mouse model at 25 mg/kg, po measured up to 6 hrs by UPLC-MS/MS analysis; assay type: ADME, organism-based; parameters: route oral, dose 25 mg/kg, time <=6; settings: in vivo
# [11] = Toxicity in healthy C57BL/6 mouse assessed as histological changes in heart at 100 mg/kg, po administered for 10 days by H and E staining based assay; assay type: organism-based; settings: in vivo, 240 h, time 10 day
# [12] = Chemical stability in acetate buffer at pH 4.5 assessed as half life measured up to 12 hrs by HPLC analysis; assay type: physicochemical
# [13] = Metabolic stability in healthy C57BL/6 mouse liver assessed as half life measured up to 12 hrs by HPLC analysis; assay type: ADME, tissue-based
# [14] = Toxicity in healthy C57BL/6 mouse assessed as histological changes in spleen at 100 mg/kg, po administered for 10 days by H and E staining based assay; assay type: organism-based; settings: in vivo, 240 h, time 10 day
# Mus musculus [15] = experiment: Anti-colitis activity against DSS-induced C57BL/6 mouse model of colitis assessed as fold change in body weight recovery at 25 to 100 mg/kg, po administered via gavage twice a day for 10 days relative to SASP; assay type: functional; settings: dose 25-100 mg/kg; time 10 day
# [16] = Chemical stability in phosphate buffer at pH 6.8 assessed as half life measured up to 12 hrs by HPLC analysis; assay type: physicochemical
# Mus musculus [17] = experiment: Anti-colitis activity against DSS-induced colitis in C57BL/6 mouse model assessed as assessed as recovery of body weight at 25 mg/kg, po administered via gavage twice daily for 10 days; assay type: functional, organism-based; settings: time 10.0 day
# Mus musculus [18] = experiment: Anti-colitis activity against DSS-induced C57BL/6 mouse model of colitis assessed as restoration of intestinal barrier function by measuring fold increase in FITC-dextran level in plasma at 25 mg/kg, po administered via gavage twice a day for 10 days followed by FITC-dextran addition and measured after 4 hrs; assay type: functional; settings: time 10 day
# Mus musculus [19] = experiment: Anti-colitis activity against DSS-induced colitis in C57BL/6 mouse model assessed as decrease in MPO level in colon at 50 mg/kg, po administered via gavage twice a day for 10 days; assay type: functional; parameters: scale not given: the % may be the effect or the level left; settings: time 10 day
# [20] = Metabolic stability in healthy C57BL/6 mouse colon assessed as half life measured up to 12 hrs by HPLC analysis; assay type: ADME, tissue-based
# [21] = Toxicity in healthy C57BL/6 mouse assessed as histological changes in kidney at 100 mg/kg, po administered for 10 days by H and E staining based assay; assay type: organism-based; settings: in vivo, 240 h, time 10 day
# [22] = AUC (0 to 6 hrs) in DSS-induced colitis C57BL/6 mouse model at 25 mg/kg, po measured up to 6 hrs by UPLC-MS/MS analysis; assay type: ADME, organism-based; parameters: route oral, dose 25 mg/kg, time <=6; settings: in vivo
# [23] = Cmax in healthy C57BL/6 mouse at 25 mg/kg, po measured up to 6 hrs by UPLC-MS/MS analysis; assay type: ADME, organism-based; parameters: route oral, dose 25 mg/kg, time <=6; settings: in vivo
# Mus musculus [24] = experiment: Anti-colitis activity against DSS-induced colitis in C57BL/6 mouse model assessed as decrease in MPO level in colon at 25 mg/kg, po administered via gavage twice a day for 10 days; assay type: functional; parameters: scale not given: the % may be the effect or the level left; settings: time 10 day
# Mus musculus [25] = experiment: Anti-colitis activity against DSS-induced colitis in C57BL/6 mouse model assessed as fold decrease in disease activity index at 25 mg/kg, po administered via gavage twice daily for 10 days relative to control; assay type: functional; settings: time 10 day
# [26] = Metabolic stability in healthy C57BL/6 mouse jejunum assessed as half life measured up to 12 hrs by HPLC analysis; assay type: ADME, tissue-based
# [27] = Stability in human Caco-2 cells homogenate assessed as half life measured up to 12 hrs by HPLC analysis; assay type: ADME, cell-based; settings: Caco-2 cell homogenate
# Mus musculus [28] = experiment: Anti-colitis activity against DSS-induced C57BL/6 mouse model of colitis assessed as decrease in MPO level in colon at 100 mg/kg, po administered via gavage twice a day for 10 days; assay type: functional; parameters: scale not given: the % may be the effect or the level left; settings: time 10 day
# [29] = Toxicity in healthy C57BL/6 mouse assessed as histological changes in liver at 100 mg/kg, po administered for 10 days by H and E staining based assay; assay type: organism-based; settings: in vivo, 240 h, time 10 day
smiles,measurement,setting,value
O=C(O)[C@@H](CO)NC(=O)[C@H]1C[C@@H](O)CN1,half-life,[1],> 12 h
same,inhibition (INH),[2],Not Active
same,half-life,[3],> 12 h
same,half-life,[4],> 12 h
same,fold change (FC),Mus musculus [5],1.2
same,Activity,[6],Non-Toxic
same,Activity,Mus musculus [7],Active
same,half-life,[8],> 12 h
same,half-life,[9],> 12 h
same,Cmax,[10],24 µM
same,Activity,[11],Non-Toxic
same,half-life,[12],> 12 h
same,half-life,[13],> 12 h
same,Activity,[14],Non-Toxic
same,fold change (FC),Mus musculus [15],2.1
same,half-life,[16],> 12 h
same,Activity,Mus musculus [17],Active
same,fold change (FC),Mus musculus [18],10.7
same,Activity,Mus musculus [19],47.5%
same,half-life,[20],> 12 h
same,Activity,[21],Non-Toxic
same,AUC,[22],54.65 microM/L.hr
same,Cmax,[23],5.79 µM
same,Activity,Mus musculus [24],72.8%
same,fold change (FC),Mus musculus [25],1.5
same,half-life,[26],> 12 h
same,half-life,[27],> 12 h
same,Activity,Mus musculus [28],59.7%
same,Activity,[29],Non-Toxic
